The record followed here is ChEMBL document CHEMBL5137024, “Discovery of novel coumarin-indole derivatives as tubulin polymerization inhibitors with potent anti-gastric cancer activities” (Eur J Med Chem, 2022).

Assay [1] has as its system HCT-116. Nature of the assay: cells. The conditions noted are these: Homo sapiens, HCT-116, 48 h.
The subject of assay [2] is MGC-803. Nature of the assay: Antiproliferative activity against human MGC-803 cells assessed as reduction in cell viability incubated for 48 hrs by MTT assay. Format: functional, cell-based. To be noted: Homo sapiens, MGC-803, 48 h.
In assay [3] the test system is KYSE-450. The experiment in a line: Antiproliferative activity against human KYSE-450 cells assessed as reduction in cell viability incubated for 48 hrs by MTT assay. Format: functional, cell-based. The conditions noted are these: KYSE-450, 48 h. A general note: Formazan colour is commonly taken as a measure of viable cells.

Broadly, the IC50 is the concentration that gives 50% inhibition. Regarding `CN(c1ccc2ccn(C)c2c1)c1cc(=O)oc2ccccc12`, the IC50 in assay [1] was determined as 514 nM; in assay [2], 168 nM; in assay [3] it was 472 nM.
Taken in the same sequence, the figures for `COc1ccc2c(c1)c(C=O)cn2-c1cc(=O)oc2ccccc12` were more than 20000 nM, more than 20000 nM and more than 20000 nM.
As to `O=c1cc(Nc2ccc3cc[nH]c3c2)c2ccccc2o1`, the IC50 was 7490 nM in assay [1], 20 nM in assay [2] and more than 20000 nM in assay [3].
In the case of `O=C(c1c[nH]c2ccccc12)c1cc(=O)oc2ccccc12`, the concentration for half-maximal inhibition (IC50) in assay [1], in assay [2] and in assay [3] was more than 20000 nM in each case.
In the case of `CC(C)(C)OC(=O)n1c(-c2cc(=O)oc3ccccc23)cc2ccccc21`, the 50% inhibitory concentration (IC50) was determined as 3380 nM in assay [1], 1180 nM in assay [2] and 2180 nM in assay [3].
For `O=Cc1ccc2c(ccn2-c2cc(=O)oc3ccccc23)c1` the same measures were 11400 nM, 18100 nM and 10700 nM.
On to `Cn1ccc2cc(Nc3cc(=O)oc4ccccc34)ccc21`, for which the IC50 stood at 270 nM in assay [1], 110 nM in assay [2] and 310 nM in assay [3].
Taken in the same sequence, the figures for `CCn1ccc2cc(Nc3cc(=O)oc4ccccc34)ccc21` were 3050 nM, 6040 nM and more than 20000 nM.
Take `COc1ccc2[nH]cc(C(=O)c3cc(=O)oc4ccccc34)c2c1`: the IC50 in assay [1], in assay [2] and in assay [3] was more than 20000 nM each time.
Consider `O=c1cc(-n2ccc3ccccc32)c2ccccc2o1`, for which the half-maximal inhibitory concentration (IC50) in assay [1], in assay [2] and in assay [3] was more than 20000 nM throughout.
In the case of `O=c1cc(Nc2ccc3c(ccn3Cc3ccccc3)c2)c2ccccc2o1`, the figures for the IC50 in assay [1], in assay [2] and in assay [3] were 6250 nM, 210 nM and more than 20000 nM, respectively.
With `CCN(c1ccc2c(ccn2C)c1)c1cc(=O)oc2ccccc12`, the figures for the IC50 in assay [1], in assay [2] and in assay [3] were 102 nM, 87 nM and 128 nM, respectively.
Consider `COc1cc2c(c(OC)c1OC)-c1ccc(OC)c(=O)cc1[C@@H](NC(C)=O)CC2` [COLCHICINE], for which the IC50 amounted to 108 nM in assay [1] and 122 nM in assay [3].
Regarding `CCn1ccc2cc(N(C)c3cc(=O)oc4ccccc34)ccc21`, the IC50 is 27 nM in assay [1], 13 nM in assay [2] and 58 nM in assay [3].
In the case of `O=c1cc(-c2cc3ccccc3[nH]2)c2ccccc2o1`, the figures for the IC50 in assay [1], in assay [2] and in assay [3] were 480 nM, 650 nM and 710 nM, respectively.
Turning to `O=c1cc(-c2ccc3[nH]ccc3c2)c2ccccc2o1`, the figures for the IC50 in assay [1], in assay [2] and in assay [3] were 240 nM, 1560 nM and 2100 nM, respectively.
As for `CCn1ccc2cc(-c3cc(=O)oc4ccccc34)ccc21`, the IC50 in assay [1] was 980 nM; in assay [2], 1210 nM; in assay [3], 840 nM.
With `O=c1cc(-n2ccc3cc(O)ccc32)c2ccccc2o1`, the IC50 in assay [1] stood at 11900 nM; in assay [2], 12900 nM; in assay [3], 17900 nM.
With `CC(C)(C)OC(=O)n1cc(-c2cc(=O)oc3ccccc23)c2ccccc21`, the IC50 in assay [1] stood at 180 nM; in assay [2], 180 nM; in assay [3] it was 210 nM.
Turning to `Cn1ccc2ccc(Nc3cc(=O)oc4ccccc34)cc21`, the IC50 in assay [1] was 2160 nM; in assay [2], 1580 nM; in assay [3], 5460 nM.
Taken in the same sequence, the figures for `CN(c1ccc2[nH]ccc2c1)c1cc(=O)oc2ccccc12` were 50 nM, 14 nM and 69 nM.
Turning to `COc1ccc2c(ccn2-c2cc(=O)oc3ccccc23)c1`, the IC50 in assay [1] is 17400 nM; in assay [2], 8140 nM; in assay [3], 16100 nM.
Turning to `O=c1cc(-n2ccc3cc([N+](=O)[O-])ccc32)c2ccccc2o1`, the IC50 in assay [1], in assay [2] and in assay [3] was more than 20000 nM each time.
With `O=c1cc(Nc2ccc3[nH]ccc3c2)c2ccccc2o1`, the IC50 in assay [1] stood at 2660 nM; in assay [2], 260 nM; in assay [3], 589 nM.
Take `Cc1ccc2[nH]cc(C(=O)c3cc(=O)oc4ccccc34)c2c1`: the IC50 in assay [1], in assay [2] and in assay [3] was more than 20000 nM in each case.
